Our source for the melting point values is patent US9783537B2, “3-(4-ethylnylphenyl) pyridopyrimidinone compounds and process for preparation thereof useful as potential anticancer agents” (Council of Scientific & Industrial Research, priority 2013, dated 2017).

A word on the melting point: it is the temperature, or range, at which the solid turns liquid.

`C#Cc1ccc(-n2c(/C=C/c3ccc(F)cc3)nc3ncccc3c2=O)cc1` [4a, (E)-3-(4-Ethynylphenyl)-2-(4-fluorostyryl)pyrido[2,3-d]pyrimidin-4(3H)-one] displayed a melting point of 123 to 124 °C.
In the case of `C#Cc1ccc(-n2c(/C=C/c3cccc(OC(F)(F)F)c3)nc3ncccc3c2=O)cc1` [4d, (E)-3-(4-Ethynylphenyl)-2-(3-(trifluoromethoxy)styryl)pyrido[2,3-d]pyrimidin-4(3H)-one], the melting point lay within 128 to 129 °C.
`C#Cc1ccc(-n2c(/C=C/c3ccc(F)c(F)c3)nc3ncccc3c2=O)cc1` [4f, (E)-2-(3,4-Difluorostyryl)-3-(4-ethynylphenyl)pyrido[2,3-d]pyrimidin-4(3H)-one] registered a melting point of 123 to 124 °C.
Compound `C#Cc1ccc(-n2c(/C=C/c3ccc(OC)c(F)c3)nc3ncccc3c2=O)cc1` [4h, (E)-3-(4-Ethynylphenyl)-2-(3-fluoro-4-methoxystyryl)pyrido[2,3-d]pyrimidin-4(3H)-one] yielded a melting point of 124 to 125 °C.
The result for `C#Cc1ccc(-n2c(/C=C/c3ccc(O)c(OC)c3)nc3ncccc3c2=O)cc1` [4k, (E)-3-(4-Ethynylphenyl)-2-(4-hydroxy-3-methoxystyryl)pyrido[2,3-d]pyrimidin-4(3H)-one] reads 123 to 124 °C; that for `C#Cc1ccc(-n2c(/C=C/c3cc(OC)cc(OC)c3)nc3ncccc3c2=O)cc1` [4m, (E)-2-(3,5-Dimethoxystyryl)-3-(4-ethynylphenyl)pyrido[2,3-d]pyrimidin-4(3H)-one], 123 to 124 °C.
Regarding `C#Cc1ccc(-n2c(/C=C/c3cc(OC)ccc3OC)nc3ncccc3c2=O)cc1` [4n, (E)-2-(2,5-Dimethoxystyryl)-3-(4-ethynylphenyl)pyrido[2,3-d]pyrimidin-4(3H)-one], the melting point is 127 to 128 °C.
Compound `C#Cc1ccc(-n2c(/C=C/c3cccc4c3OCO4)nc3ncccc3c2=O)cc1` [4o, (E)-2-(2-(benzo[d][1,3]dioxol-4-yl)vinyl)-3-(4-ethynylphenyl)pyrido[2,3-d]pyrimidin-4(3H)-one] showed a melting point of 125 to 126 °C.
`C#Cc1ccc(-n2c(/C=C/c3c(OC)cc(OC)cc3OC)nc3ncccc3c2=O)cc1` [4r, (E)-3-(4-Ethynylphenyl)-2-(2,4,6-trimethoxystyryl)pyrido[2,3-d]pyrimidin-4(3H)-one] displayed a melting point of 124 to 125 °C.
In turn, `C#Cc1ccc(-n2c(/C=C/c3ccc4[nH]ccc4c3)nc3ncccc3c2=O)cc1` [4u, (E)-2-(2-(1H-Indol-5-yl)vinyl)-3-(4-ethynylphenyl)pyrido[2,3-d]pyrimidin-4(3H)-one] showed a melting point of 123 to 124 °C.
In the case of `C#Cc1ccc(-n2c(/C=C/c3c[nH]c4ccc(OC)cc34)nc3ncccc3c2=O)cc1` [4v, (E)-3-(4-ethynylphenyl)-2-(2-(5-methoxy-1H-indol-3-yl)vinyl)pyrido[2,3-d]pyrimidin-4(3H)-one], the melting point lay within 114 to 115 °C.
